For 28 compounds, EC50, IC50 and Ki results are on record in patent US20230271949A1, “GLP-1R MODULATING COMPOUNDS” (ASCLETIS BIOSCIENCE CO., LTD., priority 2022, published 2023).

Experiment [1] concerns the target T1, GLP-1R (Homo sapiens, UniProt P43220). Nature of the experiment: GLP-1R agonist cAMP stimulation assay (HTRF cAMP). The following applies: HEK293 cell line expressing GLP-1 target; HTRF cAMP agonist mode, 30 min at RT. The experiment is classed as cell-based. Summed up:
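Read-out was HTRF (665/615 ratio), interpolated onto a cAMP standard curve and normalised to DMSO (0%) and maximal GLP-1(7-37) reference (100%) wells. Assay: GLP-1R cells at 1.0×E5/mL incubated with compound dilution series (3-fold, 10 points) for 30 min at room temperature before 60 min detection.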

Experiment [2] concerns the target T1, GLP-1R. Nature of the experiment: Tag-lite binding assay (competition with GLP-1 receptors red agonist). The settings on record: for IC50: HEK293 GLP-1 cells labeled with SNAP-Lumi4-Tb, red agonist 4.917 nM, 23° C., 2 h; for Ki: calculated from sample IC50 and red agonist Kd. How it is done: B. Tag-Lite Binding Assay
The cell line was constructed by WuXi.
10) Dispense cells into cell plate (1.8 M cells/well in 2 ml medium of 6-well plate, total 4 wells).
Second Day: Tag-Lite Binding Assay
3) The cell culture medium is removed from the 6-well plate and then 1 mL of Tag-lite SNAP-Lumi4-Tb diluted in Tag-lite labeling medium are added gently on the cells.
7) The testing compounds and reference compound are serially diluted with 3-fold, 10 points using Echo, then transfer 100 nL compounds to the assay plate.
8) Add the labeled cells to each well according to the plate map, 10000 cells/10 uL/well. Centrifuge the plate at 1000 rpm for 1 min.
9) Incubate the plate at 23° C., 30 min.
10) Add 50 nL of red agonist (final conc.: 4.917 nM) to destination plate using Echo.
11) Incubate the plate at 23° C. for 2 h.
12) Read the plate on an HTRF® compatible reader (at 665 nm and 620 nm).
% Inhibition=100%−(Ratio−LC)/(HC−LC)*100%
HC: The average ratio of adding DMSO wells
LC: The average ratio of adding the top concentration of reference compounds wells
b) The “log (inhibitor) vs. response—Variable slope” model in GraphPad Prism 5.0 was used to fit the dose-response curve of each sample. The sample concentration (x) and its corresponding % Inhibition data (y) were substituted into the model. The sample concentration (abscissa) was x=log(x) transformed. The transformed xy was used as the sample curve to obtain the IC50.
c) Calculate the sample Ki according to the sample IC50 and red agonist Kd. S in the formula is the actual used concentration of red agonist.

T1 sequence (P43220 24-463): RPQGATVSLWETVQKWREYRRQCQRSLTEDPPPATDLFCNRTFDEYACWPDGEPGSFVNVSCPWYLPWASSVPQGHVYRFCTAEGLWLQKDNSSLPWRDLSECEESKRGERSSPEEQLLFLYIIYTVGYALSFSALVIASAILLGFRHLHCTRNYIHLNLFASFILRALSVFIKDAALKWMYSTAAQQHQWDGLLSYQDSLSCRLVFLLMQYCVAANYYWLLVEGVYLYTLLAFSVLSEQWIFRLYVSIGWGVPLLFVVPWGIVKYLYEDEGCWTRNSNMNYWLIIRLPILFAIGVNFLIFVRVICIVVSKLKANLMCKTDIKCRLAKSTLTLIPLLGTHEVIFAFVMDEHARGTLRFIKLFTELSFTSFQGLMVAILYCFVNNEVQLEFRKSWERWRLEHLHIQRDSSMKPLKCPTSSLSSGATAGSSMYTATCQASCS

As usually defined, the EC50 is the concentration that produces a half-maximal response. Read a high EC50 as a less potent agent. Usually IC50 stands for the concentration that inhibits the measured activity by half. A low value points to greater potency. As usually defined, the Ki is a dissociation constant, usually derived from enzyme kinetics or from competition with a known ligand. `Cc1n[nH]c2c(C)cc(C(=O)Nc3ccc4c(c3)nc(C3CC35CCN(c3cccc(OCc6ccc(Cl)cc6F)n3)CC5)n4CC3CCO3)cc12` (stereo not drawn) [Compound 245]: a half-maximal effect at GLP-1R [1] (EC50) was put at 0.51 nM. In addition, on GLP-1R [2], the concentration for half-maximal inhibition (IC50) was 146 nM and the inhibition constant Ki was 82.3 nM.
On the same counts, the results for `Cc1n[nH]c2ccc(NC(=O)c3ccc4c(c3)nc(CN3CC=C(c5cccc(OCc6ccc(Cl)cc6F)n5)CC3)n4C[C@@H]3CCO3)cc12` [Compound 3, (S)-2-((6-((4-chloro-2-fluorobenzyl)oxy)-3′,6′-dihydro-[2,4′-bipyridin]-1′(2′H)-yl)methyl)-N-(3-methyl-1H-indazol-5-yl)-1-(oxetan-2-ylmethyl)-1H-benzo[d]imidazole-5-carboxamide] are 0.56 nM, 1750 nM and 876 nM.
The matching figures for `Cc1n[nH]c2c(C)cc(C(=O)Nc3ccc4c(c3)nc(CN3CC=C(c5cccc6c5O[C@](C)(c5ccc(Cl)cc5F)O6)CC3)n4CC3CCO3)cc12` (stereo partly drawn) [Compound 385]: 0.61 nM, 158 nM and 82.7 nM.
On the same counts, the results for `Cc1n[nH]c2ccc(NC(=O)c3ccc4c(c3)nc(CN3CC=C(c5cccc6c5O[C@@](C)(c5ccc(Cl)cc5F)O6)CC3)n4C[C@@H]3CCO3)cc12` [Compound 5, 2-((4-((S)-2-(4-chloro-2-fluorophenyl)-2-methylbenzo[d][1,3]dioxol-4-yl)-3,6-dihydropyridin-1(2H)-yl)methyl)-N-(3-methyl-1H-indazol-5-yl)-1-(((S)-oxetan-2-yl)methyl)-1H-benzo[d]imidazole-5-carboxamide] are 0.12 nM, 1700 nM and 911 nM.
Regarding `Cc1n[nH]c2c(F)cc(C(=O)Nc3ccc4c(c3)nc(CN3CC=C(c5cccc(OCc6ccc(Cl)cc6F)n5)CC3)n4C[C@@H]3CCO3)cc12` [Compound 196], the EC50 at GLP-1R [1] was 0.17 nM. Further, at GLP-1R [2], the IC50 is 152 nM and the Ki is 87.9 nM.
The matching figures for `Cc1n[nH]c2c(C)cc(NC(=O)c3ccc4c(c3)nc(CN3CCC(c5cccc6c5OC(C)(c5ccc(C#N)cc5F)O6)CC3)n4CC3CCO3)cc12` (stereo not drawn) [Compound 335]: 0.97 nM, 1110 nM and 615 nM.
The matching figures for `Cc1cc(NC(=O)c2ccc3c(c2)nc(CN2CCC(c4cccc(OCc5ccc(C#N)cc5F)n4)CC2)n3C[C@@H]2CCO2)cc2cn[nH]c12` [Compound 134]: 0.85 nM, 1840 nM and 904 nM.
The matching figures for `Cc1n[nH]c2c(F)cc(C(=O)Nc3ccc4c(c3)nc(Cc3cc(F)c(-c5cccc(OCc6ccc(Cl)cc6F)n5)cc3F)n4C[C@@H]3CCO3)cc12` [Compound 413]: 0.49 nM, 28 nM and 14.1 nM.
As for `O=C(Nc1ccc2c(c1)C1(CC1)C(=O)N2)c1ccc2c(c1)nc(CN1CCC(c3cccc(OCc4ccc(Cl)cn4)n3)CC1)n2C[C@@H]1CCO1` [Compound 101], the half-maximal effective concentration (EC50) on GLP-1R [1] worked out at 0.75 nM. For the same compound, on GLP-1R [2], the IC50 came out at 1280 nM and the Ki was 641 nM.
The matching figures for `Cc1n[nH]c2c(C)cc(NC(=O)c3ccc4c(c3)nc(CN3CCC(c5cccc(OCc6ccc(C#N)cc6F)n5)CC3)n4C[C@@H]3CCO3)cc12` [Compound 127]: 0.15 nM, 1250 nM and 744 nM.
On the same counts, the results for `Cc1n[nH]c2c(C)cc(C(=O)Nc3ccc4c(c3)nc(CN3CC=C(c5cccc(OCc6ccc(Cl)cc6F)n5)CC3)n4C[C@@H]3CCO3)cc12` [Compound 197] are 0.19 nM, 165 nM and 84 nM.
On the same counts, the results for `CCn1cncc1Cn1c(Cc2c(F)cc(-c3cccc4c3O[C@@](C)(c3ccc(Cl)cn3)O4)cc2F)nc2cc(NC(=O)c3cc(F)c4[nH]nc(C)c4c3)ccc21` [Compound 411] are 0.33 nM, 120 nM and 72.6 nM.
Compound `Cc1n[nH]c2c(C)cc(C(=O)Nc3ccc4c(c3)nc(CN3CC=C(c5cccc6c5O[C@@](C)(c5ccc(Cl)cc5F)O6)CC3)n4CC3CCO3)cc12` (stereo partly drawn) [Compound 384] yielded an EC50 at GLP-1R [1] of 0.08 nM. In addition, on GLP-1R [2], the 50% inhibitory concentration (IC50) stood at 110 nM and the Ki is 68.3 nM.
The matching figures for `Cc1n[nH]c2c(C)cc(NC(=O)c3ccc4c(c3)nc(CN3CC=C(c5cccc(OCc6ccc(C#N)c7cc(Cl)oc67)n5)CC3)n4C[C@@H]3CCO3)cc12` [Compound 354]: 0.21 nM, 2140 nM and 1060 nM.
The matching figures for `Cc1n[nH]c2c(F)cc(NC(=O)c3ccc4c(c3)nc(CN3CC=C(c5cccc(OCc6ccc(Cl)cc6F)n5)CC3)n4C[C@@H]3CCO3)cc12` [Compound 153]: 0.59 nM, 1450 nM and 873 nM.
On the same counts, the results for `Cc1n[nH]c2c(F)cc(C(=O)Nc3ccc4c(c3)nc(Cc3cc(F)c(-c5cccc(OCc6ccc(Cl)cc6F)n5)cc3CO)n4C[C@@H]3CCO3)cc12` [Compound 416] are 0.37 nM, 54.3 nM and 29.3 nM.
As to `O=C(NCC(=O)N1C[C@H](O)C[C@H]1C(=O)O)c1ccc2c(c1)nc(CN1CCC(c3cccc(OCc4ccc(Cl)cc4F)n3)CC1)n2C[C@@H]1CCO1` [Compound 2, (2S,4R)-1-((2-((4-(6-((4-chloro-2-fluorobenzyl)oxy)pyridin-2-yl)piperidin-1-yl)methyl)-1-(((S)-oxetan-2-yl)methyl)-1H-benzo[d]imidazole-5-carbonyl)glycyl)-4-hydroxypyrrolidine-2-carboxylic acid], on GLP-1R [1], a half-maximal response (EC50) required 0.32 nM. At GLP-1R [2], the concentration for half-maximal inhibition (IC50) was found to be 345 nM and the inhibitory constant (Ki) is 165 nM.
Take `Cc1n[nH]c2c(C)cc(NC(=O)c3ccc4nc(CN5CC=C(c6cccc(OCc7ccc(C#N)cc7F)n6)CC5)n(CC5CCO5)c4c3)cc12` (stereo not drawn) [Compound 276]: the concentration for a half-maximal effect (EC50) at GLP-1R [1] came out at 0.65 nM. At GLP-1R [2], the IC50 amounted to 2460 nM and the Ki is 1010 nM.
As to `CCn1cncc1Cn1c(CN2CC=C(c3cccc(OCc4ccc(Cl)cc4F)n3)CC2)nc2cc(NC(=O)c3cc(F)c4[nH]nc(C)c4c3)ccc21` [Compound 408], at GLP-1R [1], the EC50 was 0.21 nM. Further, on GLP-1R [2], the IC50 worked out at 106 nM and the Ki was 68.4 nM.
The matching figures for `O=C(Nc1cc(F)c2c(c1)C1(CC1)C(=O)N2)c1ccc2c(c1)nc(CN1CC=C(c3cccc(OCc4ccc(Cl)cc4F)n3)CC1)n2C[C@@H]1CCO1` [Compound 154]: 0.45 nM, 1580 nM and 904 nM.
On the same counts, the results for `O=C(Nc1ccc2c(c1)nc(CN1CCC(c3cccc(OCc4ccc(Cl)cc4F)n3)CC1)n2C[C@@H]1CCO1)c1ccc2[nH]c(=O)[nH]c2c1` [Compound 85] are 0.41 nM, 143 nM and 71.7 nM.
The matching figures for `Cc1cc(NC(=O)c2ccc3c(c2)nc(CN2CCC(c4cccc(OCc5ccc(Cl)cc5F)n4)CC2)n3C[C@@H]2CCO2)cc2c1NC(=O)C21CC1` [Compound 105]: 0.78 nM, 1940 nM and 1000 nM.
In the case of `Cc1n[nH]c2c(C)cc(NC(=O)c3ccc4c(c3)nc(CN3CCC(c5cccc(OCc6ccc(Cl)cc6F)n5)CC3)n4C[C@@H]3CCO3)cc12` [Compound 100], on GLP-1R [1], the midpoint of the response, the EC50, lay at 0.98 nM. Also, on GLP-1R [2], the half-maximal inhibitory concentration (IC50) amounted to 1260 nM and the inhibitory constant (Ki) is 893 nM.
At GLP-1R [1], `Cc1n[nH]c2c(F)cc(C(=O)Nc3ccc4c(c3)nc(Cc3cc(F)c(-c5cccc(OCc6ccc(Cl)cc6F)n5)cc3F)n4C3COC[C@H]3O)cc12` (stereo partly drawn) [Compound 417] gave a half-maximal effective concentration (EC50) of 0.65 nM. In addition, on GLP-1R [2], the IC50 was found to be 137 nM and the Ki is 69.2 nM.
The matching figures for `Cc1n[nH]c2c(F)cc(NC(=O)c3ccc4c(c3)nc(CN3CCC(c5cccc6c5OC(C)(c5ccc(C#N)cc5F)O6)CC3)n4CC3CCO3)cc12` (stereo not drawn) [Compound 334]: 0.61 nM, 1210 nM and 692 nM.
The matching figures for `Cc1n[nH]c2ccc(NC(=O)c3ccc4c(c3)nc(CN3CC=C(c5cccc(OCc6ccc(Cl)cn6)n5)CC3)n4C[C@@H]3CCO3)cc12` [Compound 145]: 0.45 nM, 1920 nM and 956 nM.
On the same counts, the results for `O=C(Nc1ccc2[nH]c(=O)[nH]c2c1)c1ccc2c(c1)nc(CN1CCC(c3cccc(OCc4ccc(Cl)cc4F)n3)CC1)n2C[C@@H]1CCO1` [Compound 90] are 1.59 nM, 1900 nM and 950 nM.
Regarding `Cc1n[nH]c2c(C)cc(NC(=O)c3ccc4c(c3)nc(CN3CC=C(c5cccc6c5O[C@@](C)(c5ccc(Cl)cn5)O6)CC3)n4CC3CCO3)cc12` (stereo partly drawn) [Compound 382], the concentration giving a half-maximal response (EC50) on GLP-1R [1] is 0.1 nM. Also, at GLP-1R [2], the IC50 stood at 689 nM and the Ki is 342 nM.
